Reference: patent US9045505B2, “Nitric oxide donors” (University of Otago, priority 2006, dated 2015)

Assays:
cytochrome c oxidase = target: T1, cytochrome c oxidase (Rattus norvegicus, UniProt P05503); assay: NO generation and respiration in isolated liver mitochondria (NO and O2 electrodes); format: biochemical; conditions: succinate
T1 construct: from tissue; host or cells: rat liver mitochondria
Procedure: FIG. 9 is a series of traces and graphs showing membrane potential-dependent MitoSNAP mitochondrial uptake and NO^• generation. (a-d) Liver mitochondria were incubated in KCl medium supplemented with rotenone in a stirred 3 ml chamber and electrodes were used to measure the concentrations of O2 and NO^• simultaneously. Where indicated succinate (10 mM), OxyHb (5 μM) or FCCP (500 nM) were added. For (a) and (b) 2 mg mitochondrial protein/ml and 20 μM MitoSNAP (a) or SNAP (b) were used. For (c) and (d) 0.5 mg mitochondrial protein/ml and 5 μM MitoSNAP were used. There was no effect of 5 μM MitoNAP on respiration or NO^• production. All traces are from typical experiments repeated at least twice. (e-f) Mitochondria (1 mg protein) were incubated in 1 ml KCl medium without neocuproine or DTPA, supplemented with rotenone and succinate in the absence (e) or presence (f) of FCCP (500 nM). Mitochondria were then pelleted by centrifugation (10,000×g) then aliquots of the supernatant (700 μl) were mixed with 700 μl 0.1% TFA and analyzed by RP-HPLC. The amount of MitoSNAP and MitoNAP were calculated as the percentage of their peak areas relative to the sum of both peak areas.
Nitrite, nitric oxide and S-nitrosothiol measurements. Nitrite was analyzed by the Griess assay (Molecular Probes). Nitric oxide was measured using an NO^• electrode (World Precision Instruments Ltd, UK) connected to an Apollo 4000 Free Radical Analyser. The electrode was inserted into a stirred, sealed 3 ml chamber with a Clark type O2 electrode (Rank Brothers, UK) built into its base and was thermostatted at 37° C. The NO^• electrode was calibrated by adding SNAP to argon-purged, saturated CuCl. OxyHb was prepared by reduction of bovine methemoglobin with sodium dithionite. Protein S-nitrosothiols were measured using a chemiluminescence assay in an EcoMedics CLD 88 Exhalyzer (Annex, Herts, UK) (Feelisch, M. et al. Concomitant S—, N—, and heme-nitros(yl)ation in biological tissues and fluids: implications for the fate of NO in vivo. FASEB. J. 16, 1775-85 (2002)).
Mitochondrial incubations were usually in KCl buffer (120 mM KCl, 10 mM HEPES, 1 mM EGTA, 100 μM N,N-bis(2-bis[carboxymethyl]aminoethyl) glycine (DTPA) and 10 μM neocuproine, pH 7.2) with 10 mM succinate and 4 μg/ml rotenone in the dark at 37° C., unless stated otherwise. An electrode selective for the TPP moiety of MitoSNAP and MitoNAP was made and used as described previously (Asin-Cayuela, J., Manas, A. R., James, A. M., Smith, R. A. & Murphy, M. P. Fine-tuning the hydrophobicity of a mitochondria-targeted antioxidant. FEBS Letts. 571, 9-16 (2004)). Respiration rates were measured in a Clark type O2 electrode (Rank Brothers, UK). To measure GSH and GSSG, mitochondria (1 mg protein/ml) were incubated with 0-10 μM MitoSNO1 or MitoNAP for 10 min, pelleted by centrifugation and the GSH and GSSG contents assessed by the recycling assay (Scarlett, J. L., Packer, M. A., Porteous, C. M. & Murphy, M. P. Alterations to glutathione and nicotinamide nucleotides during the mitochondrial permeability transition induced by peroxynitrite. Biochem. Pharmacol. 52, 1047-1055 (1996)). The measurement of exposed mitochondrial protein thiols is described below.
Following its accumulation within mitochondria MitoSNAP interacted with the GSH-rich matrix to release NO^• which then affected respiration by competitively inhibiting O2 consumption at cytochrome c oxidase. […] Mitochondria were incubated with the complex I inhibitor rotenone in the absence of substrate to prevent Δψ generation, and addition of 20 μM MitoSNAP produced a small amount of NO^•, presumably due to MitoSNAP diffusion into the mitochondrial matrix and reaction with GSH (FIG. 9a).
To explore further the Δψ-dependence of NO^• production by MitoSNAP, studies with decreased concentrations (5 μM) and fewer mitochondria (0.5 mg protein/ml) were undertaken (FIGS. 9c & d). […]

rat thoracic aorta = assay: Relaxation of pre-contracted rat thoracic aorta (myograph); conditions: for EC50: pre-contracted rat thoracic aorta, read-out: EC50 blood vessel relaxation
Procedure: FIG. 16 is a series of graphs showing the vasodilatory and tissue protective effects of MitoSNAP. (a) Dose-response curves for the effect of MitoSNAP and related compounds on blood vessel relaxation. The effects of intact or decomposed MitoSNAP and SNAP on pre-contracted rat thoracic aorta mounted in a myograph were determined Data represent means±sem. For MitoSNAP n=8 from experiments on two independent rat aorta preparations. For decomposed MitoSNAP and SNAP experiments the data (n=4) are from one aorta preparation. (b) EC50 for the effect of MitoSNAP and SNAP on blood vessel relaxation. The EC50 values were determined from experiments shown in (a) above. ***p<0.001 by Student's unpaired t-test. (c & d) MitoSNAP protects against I/R injury in Langendorff-perfused mouse hearts. Hearts from C57BL6 mice were Langendorff perfused and subjected to 25 min global normothermic ischemia followed by 1 h of reperfusion. MitoSNAP or MitoNAP (100 nM final), or vehicle carrier, was added via an infusion port above the aortic cannula during reperfusion. Hearts were then stained with 2,3,5-triphenyltetrazolium chloride (TTC) to visualize infarct. (c) Protection of heart function by MitoSNAP during I/R injury. Left ventricular contractile function was recorded throughout the I/R protocol.
Sprague-Dawley rats (male 250-350 g) were anesthetized by intraperitoneal injection of ketamine and xylazine (100 and 16 mg/kg, respectively) and thoracic aortas were excized and placed in Krebs-Henseleit buffer (pH 7.3) at 37° C. […] The concentrations of MitoSNAP and SNAP were calculated using ε=950 M^−1.cm^−1 and 1168 M^−1.cm^−1 at 340-344 nm respectively in PBS supplemented with 10 μM DTPA.
The uptake of MitoSNAP into mitochondria within vascular tissue and the subsequent NO^• release may make MitoSNAP a potent vasodilator. This was evaluated by determining whether MitoSNAP could relax the smooth muscle in blood vessel walls. […]

[1] = 20 μM, 2 mg mitochondrial protein/ml
[2] = 5 μM, 0.5 mg mitochondrial protein/ml

Row | Compound | NO production by energized mitochondria (cytochrome c oxidase; [1]) | effect on respiration (cytochrome c oxidase; [1]) | EC50 (rat thoracic aorta) [nM] | NO production by energized mitochondria (cytochrome c oxidase; [2]) | effect on respiration (cytochrome c oxidase; [2]) | vasodilator effect after degradation of the SNO moiety (rat thoracic aorta; pretreated (light) to degrade SNO)
1 | CC(=O)NC(C(=O)O)C(C)(C)SN=O (racemic) [SNAP, S-nitroso-N-acetyl-DL-penicillamine, reference compound] | negligible | did not affect respiration | 19.5 |  |  | 
2 | CC(=O)NC(C(=O)NCCCCC[P+](c1ccccc1)(c1ccccc1)c1ccccc1)C(C)(C)SN=O.CS(=O)(=O)[O-] (stereo not drawn) [MitoSNAP, [5-(2-acetylamino-3-methyl-3-nitrosothio-butyrylamino)-penty1]-triphenylphosphonium methanesulfonate] | rapid increase in NO^• production | respiration rate slowed | 4.5 | dramatic increase in NO^• production | decreased respiration | ineffective
